Test [1] deals with Acinetobacter baumanii T6474. Briefly: Bacterial growth minimal inhibitory concentration (microdilution, cation-adjusted Mueller-Hinton Broth). It is filed as cell-based. The note with it: Acinetobacter baumannii, multiply-resistant strain, in particular quinolone resistant. On the procedure: (§1) Bacterial Growth Minimal Inhibitory Concentrations:
(§2) Minimal inhibitory concentrations (MICs; mg/l) were determined in cation-adjusted Mueller-Hinton Broth by a microdilution method following the description given in “Methods for Dilution Antimicrobial Susceptibility Tests for Bacteria that Grow Aerobically”, Approved standard, 7th ed., Clinical and Laboratory Standards Institute (CLSI) Document M7-A7, Wayne, Pa., USA, 2006.
(§3) All Example compounds were tested against several Gram positive and Gram negative bacteria. Staphylococcus aureus A798 and Acinetobacter baumanii T6474 are multiply-resistant strains, in particular quinolone resistant.

In test [2] the test system is Staphylococcus aureus A798. The test is described as above. It is filed as cell-based. The note with it: multiply-resistant strain, in particular quinolone resistant, read-out: MIC for S. aureus A798. On the procedure: as §1, §2, §3

Converted amounts (≈) assume the structure as drawn.

With `O=C1COc2ccc(N3C[C@H](CNC4CCN(c5nc6c(cc5F)c(=O)c(C(=O)O)cn6C5CC5)C4)OC3=O)nc2N1` (mixture of isomers) [Example 21, 1-cyclopropyl-6-fluoro-4-oxo-7-((RS)-3-{[(S)-2-oxo-3-(3-oxo-3,4-dihydro-2H-pyrido[3,2-b][1,4]oxazin-6-yl)-oxazolidin-5-ylmethyl]-amino}-pyrrolidin-1-yl)-1,4-dihydro-[1,8]naphthyridine-3-carboxylic acid], the MIC in test [1] came to 0.25 µg/mL; in test [2], 0.125 µg/mL.
With `O=C(O)c1cn(C2CC2)c2cc(N3CCNCC3)c(F)cc2c1=O` [Cipro, ciprofloxacin, reference compound], the MIC in test [1] and in test [2] was greater than 32 µg/mL throughout.
Regarding `O=C1CSc2ccc(N3C[C@@H](CN4CCN(c5cc6c(cc5F)c(=O)c(C(=O)O)cn6C5CC5)CC4)OC3=O)cc2N1` [Example 1, 1-cyclopropyl-6-fluoro-4-oxo-7-{4-[(R)-2-oxo-3-(3-oxo-3,4-dihydro-2H-benzo[1,4]thiazin-6-yl)-oxazolidin-5-ylmethyl]-piperazin-1-yl}-1,4-dihydro-quinoline-3-carboxylic acid], the values for the MIC in test [1] and in test [2] were 0.125 µg/mL (≈ 0.211 µM) and no more than 0.016 µg/mL, respectively.
As for `O=C1CSc2ccc(N3C[C@@H](CNC4CN(c5nc6c(cc5F)c(=O)c(C(=O)O)cn6C5CC5)C4)OC3=O)cc2N1` [Example 2, 1-cyclopropyl-6-fluoro-4-oxo-7-(3-{[(R)-2-oxo-3-(3-oxo-3,4-dihydro-2H-benzo[1,4]thiazin-6-yl)-oxazolidin-5-ylmethyl]-amino}-azetidin-1-yl)-1,4-dihydro-[1,8]naphthyridine-3-carboxylic acid], the values for the MIC in test [1] and in test [2] were 0.125 µg/mL (≈ 0.215 µM) and no more than 0.016 µg/mL, respectively.
With `O=C1CSc2ccc(N3C[C@@H](CN4CCN(c5cc6c(cc5F)c(=O)c(C(=O)O)cn6C5CC5)CC4)OC3=O)nc2N1` [Example 3, 1-cyclopropyl-6-fluoro-4-oxo-7-{4-[(R)-2-oxo-3-(3-oxo-3,4-dihydro-2H-pyrido[3,2-b][1,4]thiazin-6-yl)-oxazolidin-5-ylmethyl]-piperazin-1-yl}-1,4-dihydro-quinoline-3-carboxylic acid], the MIC in test [1] was 0.063 µg/mL (≈ 0.106 µM); in test [2] it was no more than 0.016 µg/mL.
With `O=C1CSc2ccc(N3C[C@@H](CN4CCN(c5nc6c(cc5F)c(=O)c(C(=O)O)cn6C5CC5)CC4)OC3=O)cc2N1` [Example 4, 1-cyclopropyl-6-fluoro-4-oxo-7-{4-[(R)-2-oxo-3-(3-oxo-3,4-dihydro-2H-benzo[1,4]thiazin-6-yl)-oxazolidin-5-ylmethyl]-piperazin-1-yl}-1,4-dihydro-[1,8]naphthyridine-3-carboxylic acid], the MIC in test [1] is 0.125 µg/mL (≈ 0.21 µM); in test [2] it was no more than 0.016 µg/mL.
As to `O=C1CSc2ccc(N3C[C@@H](CNC4CN(c5nc6c(cc5F)c(=O)ccn6C5CC5)C4)OC3=O)cc2N1` [Example 5, 6-((R)-5-{[1-(8-cyclopropyl-3-fluoro-5-oxo-5,8-dihydro-[1,8]naphthyridin-2-yl)-azetidin-3-ylamino]-methyl}-2-oxo-oxazolidin-3-yl)-4H-benzo[1,4]thiazin-3-one], the results for the MIC in test [1] and in test [2] were 1 µg/mL (≈ 1.86 µM) and no more than 0.016 µg/mL, respectively.
As to `O=C1COc2ccc(N3C[C@@H](CNC4CN(c5nc6c(cc5F)c(=O)c(C(=O)O)cn6C5CC5)C4)OC3=O)nc2N1` [Example 6, 1-cyclopropyl-6-fluoro-4-oxo-7-(3-{[(R)-2-oxo-3-(3-oxo-3,4-dihydro-2H-pyrido[3,2-b][1,4]oxazin-6-yl)-oxazolidin-5-ylmethyl]-amino}-azetidin-1-yl)-1,4-dihydro-[1,8]naphthyridine-3-carboxylic acid], the MIC was 0.031 µg/mL (≈ 0.0548 µM) in test [1] and no more than 0.016 µg/mL in test [2].
In the case of `COc1c(N2CC(NC[C@@H]3CN(c4ccc5c(c4)NC(=O)CS5)C(=O)O3)C2)ccc2c(=O)c(C(=O)O)cn(C3CC3)c12` [Example 7, 1-cyclopropyl-8-methoxy-4-oxo-7-(3-{[(R)-2-oxo-3-(3-oxo-3,4-dihydro-2H-benzo[1,4]thiazin-6-yl)-oxazolidin-5-ylmethyl]-amino}-azetidin-1-yl)-1,4-dihydro-quinoline-3-carboxylic acid], the values for the MIC in test [1] and in test [2] were 0.25 µg/mL (≈ 0.423 µM) and 0.063 µg/mL (≈ 0.106 µM), respectively.
With `COc1c(N2CC(NC[C@@H]3CN(c4ccc5c(n4)NC(=O)CO5)C(=O)O3)C2)ccc2c(=O)c(C(=O)O)cn(C3CC3)c12` [Example 8, 1-cyclopropyl-8-methoxy-4-oxo-7-(3-{[(R)-2-oxo-3-(3-oxo-3,4-dihydro-2H-pyrido[3,2-b][1,4]oxazin-6-yl)-oxazolidin-5-ylmethyl]-amino}-azetidin-1-yl)-1,4-dihydro-quinoline-3-carboxylic acid], the MIC in test [1] was determined as 0.25 µg/mL (≈ 0.434 µM); in test [2], 0.063 µg/mL (≈ 0.109 µM).
As for `CCn1cc(C(=O)O)c(=O)c2ccc(N3CC(NC[C@@H]4CN(c5ccc6c(n5)NC(=O)CO6)C(=O)O4)C3)nc21` [Example 9, 1-ethyl-4-oxo-7-(3-{[(R)-2-oxo-3-(3-oxo-3,4-dihydro-2H-pyrido[3,2-b][1,4]oxazin-6-yl)-oxazolidin-5-ylmethyl]-amino}-azetidin-1-yl)-1,4-dihydro-[1,8]naphthyridine-3-carboxylic acid], the MIC is 0.06 µg/mL (≈ 0.112 µM) in test [1] and 0.063 µg/mL (≈ 0.118 µM) in test [2].
Taken in the same sequence, the figures for `O=C1CSc2ccc(N3C[C@@H](CNC4CN(c5ccc6c(=O)c(C(=O)O)cn(C7CC7)c6n5)C4)OC3=O)cc2N1` [Example 10, 1-cyclopropyl-4-oxo-7-(3-{[(R)-2-oxo-3-(3-oxo-3,4-dihydro-2H-benzo[1,4]thiazin-6-yl)-oxazolidin-5-ylmethyl]-amino}-azetidin-1-yl)-1,4-dihydro-[1,8]naphthyridine-3-carboxylic acid] were 0.25 µg/mL (≈ 0.444 µM) and 0.063 µg/mL (≈ 0.112 µM).
For the molecule `Cn1cc(C(=O)O)c(=O)c2ccc(N3CC(NC[C@@H]4CN(c5ccc6c(n5)NC(=O)CO6)C(=O)O4)C3)nc21` [Example 11, 1-methyl-4-oxo-7-(3-{[(R)-2-oxo-3-(3-oxo-3,4-dihydro-2H-pyrido[3,2-b][1,4]oxazin-6-yl)-oxazolidin-5-ylmethyl]-amino}-azetidin-1-yl)-1,4-dihydro-[1,8]naphthyridine-3-carboxylic acid], the MIC in test [1] and in test [2] was 0.063 µg/mL (≈ 0.121 µM) throughout.
Turning to `Cn1cc(C(=O)O)c(=O)c2cc(F)c(N3CC(NC[C@@H]4CN(c5ccc6c(n5)NC(=O)CO6)C(=O)O4)C3)nc21` [Example 12, 6-fluoro-1-methyl-4-oxo-7-(3-{[(R)-2-oxo-3-(3-oxo-3,4-dihydro-2H-pyrido[3,2-b][1,4]oxazin-6-yl)-oxazolidin-5-ylmethyl]-amino}-azetidin-1-yl)-1,4-dihydro-[1,8]naphthyridine-3-carboxylic acid], the MIC in test [1] and in test [2] was no more than 0.016 µg/mL throughout.
Regarding `O=C1COc2ccc(N3C[C@@H](CNC4CN(c5nc6c(cc5F)c(=O)c(C(=O)O)cn6Cc5ccccc5)C4)OC3=O)nc2N1` [Example 13, 1-benzyl-6-fluoro-4-oxo-7-(3-{[(R)-2-oxo-3-(3-oxo-3,4-dihydro-2H-pyrido[3,2-b][1,4]oxazin-6-yl)-oxazolidin-5-ylmethyl]-amino}-azetidin-1-yl)-1,4-dihydro-[1,8]naphthyridine-3-carboxylic acid], the MIC was 1 µg/mL (≈ 1.62 µM) in test [1] and no more than 0.016 µg/mL in test [2].
As to `O=C1COc2ccc(N3C[C@@H](CNC4CN(c5ccc6c(=O)c(C(=O)O)cn(C7CC7)c6n5)C4)OC3=O)nc2N1` [Example 14, 1-cyclopropyl-4-oxo-7-(3-{[(R)-2-oxo-3-(3-oxo-3,4-dihydro-2H-pyrido[3,2-b][1,4]oxazin-6-yl)-oxazolidin-5-ylmethyl]-amino}-azetidin-1-yl)-1,4-dihydro-[1,8]naphthyridine-3-carboxylic acid], the MIC in test [1] is 0.06 µg/mL (≈ 0.11 µM); in test [2], 0.031 µg/mL (≈ 0.0566 µM).
As to `O=C1COc2ccc(N3C[C@@H](CNC4CN(c5nc6c(cc5F)c(=O)c(C(=O)O)cn6CCO)C4)OC3=O)nc2N1` [Example 15, 6-fluoro-1-(2-hydroxy-ethyl)-4-oxo-7-(3-{[(R)-2-oxo-3-(3-oxo-3,4-dihydro-2H-pyrido[3,2-b][1,4]oxazin-6-yl)-oxazolidin-5-ylmethyl]-amino}-azetidin-1-yl)-1,4-dihydro-[1,8]naphthyridine-3-carboxylic acid], the MIC came out at 4 µg/mL (≈ 7.02 µM) in test [1] and 0.25 µg/mL (≈ 0.439 µM) in test [2].
In the case of `O=C1CSc2ccc(N3C[C@H](CN4CCN(c5nc6c(cc5F)c(=O)c(C(=O)O)cn6C5CC5)CC4)OC3=O)cc2N1` [Example 16, 1-cyclopropyl-6-fluoro-4-oxo-7-{4-[(S)-2-oxo-3-(3-oxo-3,4-dihydro-2H-benzo[1,4]thiazin-6-yl)-oxazolidin-5-ylmethyl]-piperazin-1-yl}-1,4-dihydro-[1,8]naphthyridine-3-carboxylic acid], the MIC is 0.125 µg/mL (≈ 0.21 µM) in test [1] and no more than 0.016 µg/mL in test [2].
Taken in the same sequence, the figures for `O=C1COc2ccc(N3C[C@@H](CNC4CCN(c5nc6c(cc5F)c(=O)c(C(=O)O)cn6C5CC5)CC4)OC3=O)nc2N1` [Example 17, 1-cyclopropyl-6-fluoro-4-oxo-7-(4-{[(R)-2-oxo-3-(3-oxo-3,4-dihydro-2H-pyrido[3,2-b][1,4]oxazin-6-yl)-oxazolidin-5-ylmethyl]-amino}-piperidin-1-yl)-1,4-dihydro-[1,8]naphthyridine-3-carboxylic acid] were no more than 0.016 µg/mL and no more than 0.016 µg/mL.
Turning to `O=C1COc2ccc(N3C[C@@H](CN4CCN(c5nc6c(cc5F)c(=O)c(C(=O)O)cn6C5CC5)CC4)OC3=O)nc2N1` [Example 18, 1-cyclopropyl-6-fluoro-4-oxo-7-{4-[(R)-2-oxo-3-(3-oxo-3,4-dihydro-2H-pyrido[3,2-b][1,4]oxazin-6-yl)-oxazolidin-5-ylmethyl]-piperazin-1-yl}-1,4-dihydro-[1,8]naphthyridine-3-carboxylic acid], the MIC came to 0.25 µg/mL (≈ 0.431 µM) in test [1] and 0.031 µg/mL (≈ 0.0535 µM) in test [2].

For the origin of these results see patent US9079922B2, “2-oxo-oxazolidin-3,5-diyl antibiotic derivatives” (priority 2011, dated 2015).
